# Experiments:
# Experiment in all cases: relative viability (nuclei count vs DMSO), 5 days (fraction); higher = more cells survive
# NCI-H727 = system: NCI-H727
# Summary of the method: (§1)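 Lung cancer cell lines were seeded in 1536-well plates and dosed by pin tool the next day, with either a single drug or a fixed anchor-drug dose combined with five library-drug doses (not always all listed) spaced in √10 steps. Five days later, one step fixed the cells and stained their nuclei (final 0.05% Triton X-100, 1% formaldehyde, 1 ug/ml Hoechst), and nuclei were counted on 4× images. Relative viability is the nuclei count in treated wells divided by the count in vehicle wells, and each value is the median of duplicate plates.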
# COR-L 105 = system: COR-L 105
# Summary of the method: as §1
# ABC-1 = system: ABC-1
# Summary of the method: as §1
# HCC-366 = system: HCC-366
# Summary of the method: as §1
# NCI-H2009 = system: NCI-H2009
# Summary of the method: as §1
# HARA = system: HARA
# Summary of the method: as §1
# LU99A = system: LU99A
# Summary of the method: as §1
# LK-2 = system: LK-2
# Summary of the method: as §1
# NCI-H2170 = system: NCI-H2170
# Summary of the method: as §1
# NCI-H1437 = system: NCI-H1437
# Summary of the method: as §1
# EKVX = system: EKVX
# Summary of the method: as §1
# NCI-H1650 = system: NCI-H1650
# Summary of the method: as §1
# BEN = system: BEN
# Summary of the method: as §1
# NCI-H441 = system: NCI-H441
# Summary of the method: as §1
# 201T = system: 201T
# Summary of the method: as §1
# PC-14 = system: PC-14
# Summary of the method: as §1
# NCI-H661 = system: NCI-H661
# Summary of the method: as §1
# CAL-12T = system: CAL-12T
# Summary of the method: as §1
# NCI-H3122 = system: NCI-H3122
# Summary of the method: as §1
# COR-L23 = system: COR-L23
# Summary of the method: as §1
# NCI-H1666 = system: NCI-H1666
# Summary of the method: as §1
# NCI-H838 = system: NCI-H838
# Summary of the method: as §1
smiles,measurement,setting,value
C=C1C(=O)O[C@@H](CCCCCCCC)[C@@H]1C(=O)O [C-75] + C[C@@H](Oc1cc(-c2cnn(C3CCNCC3)c2)cnc1N)c1c(Cl)ccc(F)c1Cl [Crizotinib] (partner 1 µM),relative viability,NCI-H727; first compound 0.08 µM,0.825
same,relative viability,NCI-H727; first compound 0.253 µM,1.2
same,relative viability,NCI-H727; first compound 0.8 µM,0.772
same,relative viability,NCI-H727; first compound 2.53 µM,0.57
same,relative viability,NCI-H727; first compound 8 µM,1.11
same,relative viability,COR-L 105; first compound 0.08 µM,0.707
same,relative viability,COR-L 105; first compound 0.253 µM,0.808
same,relative viability,COR-L 105; first compound 0.8 µM,0.949
same,relative viability,COR-L 105; first compound 2.53 µM,0.921
same,relative viability,COR-L 105; first compound 8 µM,0.566
same,relative viability,ABC-1; first compound 0.08 µM,1.29
same,relative viability,ABC-1; first compound 0.253 µM,1.81
same,relative viability,ABC-1; first compound 0.8 µM,0.998
same,relative viability,ABC-1; first compound 2.53 µM,0.909
same,relative viability,ABC-1; first compound 8 µM,0.882
same,relative viability,HCC-366; first compound 0.08 µM,0.508
same,relative viability,HCC-366; first compound 0.253 µM,0.76
same,relative viability,HCC-366; first compound 0.8 µM,0.5
same,relative viability,HCC-366; first compound 8 µM,0.509
same,relative viability,NCI-H2009; first compound 0.08 µM,1.04
same,relative viability,NCI-H2009; first compound 0.253 µM,1.01
same,relative viability,NCI-H2009; first compound 0.8 µM,0.987
same,relative viability,NCI-H2009; first compound 2.53 µM,0.78
same,relative viability,NCI-H2009; first compound 8 µM,0.968
same,relative viability,HARA; first compound 0.08 µM,1
same,relative viability,HARA; first compound 0.253 µM,1.15
same,relative viability,HARA; first compound 0.8 µM,0.944
same,relative viability,HARA; first compound 8 µM,1.05
same,relative viability,LU99A; first compound 0.08 µM,0.538
same,relative viability,LU99A; first compound 0.253 µM,0.616
same,relative viability,LU99A; first compound 0.8 µM,0.49
same,relative viability,LU99A; first compound 2.53 µM,0.395
same,relative viability,LU99A; first compound 8 µM,0.398
same,relative viability,LK-2; first compound 0.08 µM,0.239
same,relative viability,LK-2; first compound 0.253 µM,0.208
same,relative viability,LK-2; first compound 0.8 µM,0.231
same,relative viability,LK-2; first compound 2.53 µM,0.239
same,relative viability,LK-2; first compound 8 µM,0.246
same,relative viability,NCI-H2170; first compound 0.08 µM,1.25
same,relative viability,NCI-H2170; first compound 0.253 µM,1.28
same,relative viability,NCI-H2170; first compound 0.8 µM,1.23
same,relative viability,NCI-H2170; first compound 2.53 µM,1.07
same,relative viability,NCI-H2170; first compound 8 µM,1.24
same,relative viability,NCI-H1437; first compound 0.08 µM,0.859
same,relative viability,NCI-H1437; first compound 0.253 µM,0.968
same,relative viability,NCI-H1437; first compound 0.8 µM,0.936
same,relative viability,NCI-H1437; first compound 2.53 µM,0.983
same,relative viability,NCI-H1437; first compound 8 µM,0.936
same,relative viability,EKVX; first compound 0.08 µM,1.01
same,relative viability,EKVX; first compound 0.253 µM,0.983
same,relative viability,EKVX; first compound 0.8 µM,0.897
same,relative viability,EKVX; first compound 2.53 µM,0.85
same,relative viability,EKVX; first compound 8 µM,0.893
same,relative viability,NCI-H1650; first compound 0.08 µM,0.961
same,relative viability,NCI-H1650; first compound 0.253 µM,1.1
same,relative viability,NCI-H1650; first compound 0.8 µM,0.972
same,relative viability,NCI-H1650; first compound 2.53 µM,1.12
same,relative viability,NCI-H1650; first compound 8 µM,1.21
same,relative viability,BEN; first compound 0.08 µM,0.897
same,relative viability,BEN; first compound 0.253 µM,0.952
same,relative viability,BEN; first compound 0.8 µM,0.921
same,relative viability,BEN; first compound 2.53 µM,0.755
same,relative viability,BEN; first compound 8 µM,0.825
same,relative viability,NCI-H441; first compound 0.08 µM,0.857
same,relative viability,NCI-H441; first compound 0.253 µM,0.762
same,relative viability,NCI-H441; first compound 0.8 µM,0.556
same,relative viability,NCI-H441; first compound 2.53 µM,0.46
same,relative viability,NCI-H441; first compound 8 µM,0.585
same,relative viability,201T; first compound 0.08 µM,1.05
same,relative viability,201T; first compound 0.253 µM,1.05
same,relative viability,201T; first compound 0.8 µM,1.01
same,relative viability,201T; first compound 2.53 µM,0.966
same,relative viability,201T; first compound 8 µM,1.05
same,relative viability,PC-14; first compound 0.08 µM,0.836
same,relative viability,PC-14; first compound 0.253 µM,0.905
same,relative viability,PC-14; first compound 0.8 µM,0.893
same,relative viability,PC-14; first compound 2.53 µM,0.741
same,relative viability,PC-14; first compound 8 µM,0.998
same,relative viability,NCI-H661; first compound 0.08 µM,1.1
same,relative viability,NCI-H661; first compound 0.253 µM,1.02
same,relative viability,NCI-H661; first compound 0.8 µM,1.04
same,relative viability,NCI-H661; first compound 2.53 µM,0.933
same,relative viability,NCI-H661; first compound 8 µM,1.09
same,relative viability,CAL-12T; first compound 0.08 µM,0.597
same,relative viability,CAL-12T; first compound 0.253 µM,0.626
same,relative viability,CAL-12T; first compound 0.8 µM,0.586
same,relative viability,CAL-12T; first compound 8 µM,0.849
same,relative viability,NCI-H3122; first compound 0.08 µM,0.26
same,relative viability,NCI-H3122; first compound 0.253 µM,0.254
same,relative viability,NCI-H3122; first compound 0.8 µM,0.3
same,relative viability,NCI-H3122; first compound 8 µM,0.269
same,relative viability,COR-L23; first compound 0.08 µM,0.669
same,relative viability,COR-L23; first compound 0.253 µM,0.613
same,relative viability,COR-L23; first compound 0.8 µM,0.57
same,relative viability,COR-L23; first compound 2.53 µM,0.703
same,relative viability,COR-L23; first compound 8 µM,0.642
same,relative viability,NCI-H1666; first compound 0.08 µM,1.19
same,relative viability,NCI-H1666; first compound 0.253 µM,1.21
same,relative viability,NCI-H1666; first compound 0.8 µM,0.928
same,relative viability,NCI-H1666; first compound 2.53 µM,0.847
same,relative viability,NCI-H1666; first compound 8 µM,0.614
same,relative viability,NCI-H838; first compound 0.08 µM,0.786
same,relative viability,NCI-H838; first compound 0.253 µM,0.561
same,relative viability,NCI-H838; first compound 0.8 µM,0.807
same,relative viability,NCI-H838; first compound 2.53 µM,0.792
same,relative viability,NCI-H838; first compound 8 µM,0.789

# — the supplement of paper PMC10307832
